Results as given in patent US11542304B2, “Multimeric bicyclic peptide ligands” (BicycleTx Limited, priority 2018, dated 2023).
Starred links: 1 amine or outer side, 2 acyl side, 3 side chain; linkers in the order of their positions; H or OH if unused. Positions of bridges follow the written chain, without caps; N, C: chain ends. Non-standard residues stand in square brackets, D forms with d. Chains are numbered I, II in the order given. X3 = O=C(CCOCCN(CCOCCC(=O)NCCOCCOCCOCCOCCOCCOCCOCCOCCOCCOCCn1nnc2c1CCC1C(CC2)C1COC(=O)[*:2])CCOCCC(=O)NCCOCCOCCOCCOCCOCCOCCOCCOCCOCCOCCn1nnc2c1CCC1C(CC2)C1COC(=O)[*:3])NCCOCCOCCOCCOCCOCCOCCOCCOCCOCCOCCn1nnc2c1CCC1C(CC2)C1COC(=O)[*:1]; TATA = O=C(CC[*:1])N1CN(C(=O)CC[*:2])CN(C(=O)CC[*:3])C1; Nle = CCCC[C@H](N)C(=O)O

Molecular target: CD137 (Homo sapiens, UniProt Q07011)
Assay: CD137 Promega reporter cell activity assay (NF-κB luciferase in Jurkat cells)
Conditions: for Average Fold EC50 Improvement relative to CD137L: Average EC50 for CD137L = 14.2 nM; for Average Relative Fold Induction relative to CD137L: Average fold induction for CD137L = 4.0

CD137, sequence (Q07011 24-255): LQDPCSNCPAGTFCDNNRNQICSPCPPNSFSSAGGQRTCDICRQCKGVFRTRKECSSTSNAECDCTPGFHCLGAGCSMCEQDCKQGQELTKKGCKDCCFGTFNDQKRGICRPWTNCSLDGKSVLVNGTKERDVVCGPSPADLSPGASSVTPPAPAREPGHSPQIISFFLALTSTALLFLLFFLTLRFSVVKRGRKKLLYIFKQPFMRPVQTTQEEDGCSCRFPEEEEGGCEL

Row | Compound | Average Fold EC50 Improvement relative to CD137L | Average Relative Fold Induction relative to CD137L
1 | CCCC[C@@H]1NC(=O)[C@H](Cc2ccc(O)cc2)NC(=O)[C@@H]2CCCN2C(=O)[C@H](CC(=O)O)NC(=O)[C@H](C)NC(=O)[C@H](Cc2ccccc2)NC(=O)[C@@H]2CSCCC(=O)N3CN(CN(C3)C(=O)CCSC[C@@H](C(=O)N[C@@H](C)C(N)=O)NC1=O)C(=O)CCSC[C@H](NC(=O)[C@H](C)NC(C)=O)C(=O)N[C@@H]([C@@H](C)CC)C(=O)N[C@@H](CCC(=O)O)C(=O)N[C@@H](CCC(=O)O)C(=O)N[C@H](CCCCNC(=O)OCC1C3CCc4nnn(CCOCCOCCOCCOCCOCCOCCOCCOCCOCCOCCNC(=O)CCOCC(COCCC(=O)NCCOCCOCCOCCOCCOCCOCCOCCOCCOCCOCCn5nnc6c5CCC5C(CC6)C5COC(=O)NCCCC[C@H]5NC(=O)[C@H](CCC(=O)O)NC(=O)[C@H](CCC(=O)O)NC(=O)[C@H]([C@@H](C)CC)NC(=O)[C@@H](NC(=O)[C@H](C)NC(C)=O)CSCCC(=O)N6CN7CN(C6)C(=O)CCSC[C@H](NC(=O)[C@H](Cc6ccc(O)cc6)NC(=O)[C@H](CCC(N)=O)NC5=O)C(=O)N[C@@H](Cc5ccccc5)C(=O)N[C@@H](C)C(=O)N[C@@H](CC(=O)O)C(=O)N5CCC[C@H]5C(=O)N[C@@H](Cc5ccc(O)cc5)C(=O)N[C@@H](CCCC)C(=O)N[C@H](C(=O)N[C@@H](C)C(N)=O)CSCCC7=O)(COCCC(=O)NCCOCCOCCOCCOCCOCCOCCOCCOCCOCCOCCn5nnc6c5CCC5C(CC6)C5COC(=O)NCCCC[C@H]5NC(=O)[C@H](CCC(=O)O)NC(=O)[C@H](CCC(=O)O)NC(=O)[C@H]([C@@H](C)CC)NC(=O)[C@@H](NC(=O)[C@H](C)NC(C)=O)CSCCC(=O)N6CN7CN(C6)C(=O)CCSC[C@H](NC(=O)[C@H](Cc6ccc(O)cc6)NC(=O)[C@H](CCC(N)=O)NC5=O)C(=O)N[C@@H](Cc5ccccc5)C(=O)N[C@@H](C)C(=O)N[C@@H](CC(=O)O)C(=O)N5CCC[C@H]5C(=O)N[C@@H](Cc5ccc(O)cc5)C(=O)N[C@@H](CCCC)C(=O)N[C@H](C(=O)N[C@@H](C)C(N)=O)CSCCC7=O)COCCC(=O)NCCOCCOCCOCCOCCOCCOCCOCCOCCOCCOCCn5nnc6c5CCC5C(CC6)C5COC(=O)NCCCC[C@H]5NC(=O)[C@H](CCC(=O)O)NC(=O)[C@H](CCC(=O)O)NC(=O)[C@H]([C@@H](C)CC)NC(=O)[C@@H](NC(=O)[C@H](C)NC(C)=O)CSCCC(=O)N6CN7CN(C6)C(=O)CCSC[C@H](NC(=O)[C@H](Cc6ccc(O)cc6)NC(=O)[C@H](CCC(N)=O)NC5=O)C(=O)N[C@@H](Cc5ccccc5)C(=O)N[C@@H](C)C(=O)N[C@@H](CC(=O)O)C(=O)N5CCC[C@H]5C(=O)N[C@@H](Cc5ccc(O)cc5)C(=O)N[C@@H](CCCC)C(=O)N[C@H](C(=O)N[C@@H](C)C(N)=O)CSCCC7=O)c4CCC31)C(=O)N[C@@H](CCC(N)=O)C(=O)N[C@@H](Cc1ccc(O)cc1)C(=O)N2 (some centres unmarked) [BCY8104] | 103.27 | 1.65
2 | CCCC[C@@H]1NC(=O)[C@H](Cc2ccc(O)cc2)NC(=O)[C@@H]2CCCN2C(=O)[C@H](CC(=O)O)NC(=O)[C@H](C)NC(=O)[C@H](Cc2ccccc2)NC(=O)[C@@H]2CSCCC(=O)N3CN(CN(C3)C(=O)CCSC[C@@H](C(=O)N[C@@H](C)C(N)=O)NC1=O)C(=O)CCSC[C@H](NC(=O)[C@H](C)NC(C)=O)C(=O)N[C@@H]([C@@H](C)CC)C(=O)N[C@@H](CCC(=O)O)C(=O)N[C@@H](CCC(=O)O)C(=O)N[C@H](CCCCNC(=O)OCC1C3CCc4nnn(CCOCCOCCOCCOCCOCCOCCOCCOCCOCCOCCOCCOCCOCCOCCOCCOCCOCCOCCOCCOCCOCCOCCOCCNC(=O)CCOCCN(CCOCCC(=O)NCCOCCOCCOCCOCCOCCOCCOCCOCCOCCOCCOCCOCCOCCOCCOCCOCCOCCOCCOCCOCCOCCOCCOCCn5nnc6c5CCC5C(CC6)C5COC(=O)NCCCC[C@H]5NC(=O)[C@H](CCC(=O)O)NC(=O)[C@H](CCC(=O)O)NC(=O)[C@H]([C@@H](C)CC)NC(=O)[C@@H](NC(=O)[C@H](C)NC(C)=O)CSCCC(=O)N6CN7CN(C6)C(=O)CCSC[C@H](NC(=O)[C@H](Cc6ccc(O)cc6)NC(=O)[C@H](CCC(N)=O)NC5=O)C(=O)N[C@@H](Cc5ccccc5)C(=O)N[C@@H](C)C(=O)N[C@@H](CC(=O)O)C(=O)N5CCC[C@H]5C(=O)N[C@@H](Cc5ccc(O)cc5)C(=O)N[C@@H](CCCC)C(=O)N[C@H](C(=O)N[C@@H](C)C(N)=O)CSCCC7=O)CCOCCC(=O)NCCOCCOCCOCCOCCOCCOCCOCCOCCOCCOCCOCCOCCOCCOCCOCCOCCOCCOCCOCCOCCOCCOCCOCCn5nnc6c5CCC5C(CC6)C5COC(=O)NCCCC[C@H]5NC(=O)[C@H](CCC(=O)O)NC(=O)[C@H](CCC(=O)O)NC(=O)[C@H]([C@@H](C)CC)NC(=O)[C@@H](NC(=O)[C@H](C)NC(C)=O)CSCCC(=O)N6CN7CN(C6)C(=O)CCSC[C@H](NC(=O)[C@H](Cc6ccc(O)cc6)NC(=O)[C@H](CCC(N)=O)NC5=O)C(=O)N[C@@H](Cc5ccccc5)C(=O)N[C@@H](C)C(=O)N[C@@H](CC(=O)O)C(=O)N5CCC[C@H]5C(=O)N[C@@H](Cc5ccc(O)cc5)C(=O)N[C@@H](CCCC)C(=O)N[C@H](C(=O)N[C@@H](C)C(N)=O)CSCCC7=O)c4CCC31)C(=O)N[C@@H](CCC(N)=O)C(=O)N[C@@H](Cc1ccc(O)cc1)C(=O)N2 (some centres unmarked) [BCY8103] | 188.34 | 0.91
3 | I: Ac-ACIEEGKYCFADPY[Nle]CA-NH2 / II: Ac-ACIEEGKYCFADPY[Nle]CA-NH2 / III: Ac-ACIEEGKYCFADPY[Nle]CA-NH2 (linker I:2-I:9-I:16, II:2-II:9-II:16, III:2-III:9-III:16 via TATA; linker I:7-II:7-III:7 via X3) [BCY8151] | 213.05 | 0.49
4 | CC[C@H](C)[C@@H]1NC(=O)[C@@H](NC(=O)[C@H](C)NC(C)=O)CSCCC(=O)N2CN3CN(C2)C(=O)CCSC[C@H](NC(=O)[C@H](Cc2ccc(O)cc2)NC(=O)[C@H](CCC(N)=O)NC(=O)CNC(=O)[C@H](CCC(=O)O)NC(=O)[C@H](CCC(=O)O)NC1=O)C(=O)N[C@@H](Cc1ccccc1)C(=O)N[C@@H](C)C(=O)N[C@@H](CC(=O)O)C(=O)N1CCC[C@H]1C(=O)N[C@@H](Cc1ccc(O)cc1)C(=O)N[C@@H](CCCCNC(=O)OCC1C2CCc4nnn(CCOCCOCCOCCOCCOCCOCCOCCOCCOCCOCCNC(=O)CCOCCN(CCOCCC(=O)NCCOCCOCCOCCOCCOCCOCCOCCOCCOCCOCCn5nnc6c5CCC5C(CC6)C5COC(=O)NCCCC[C@@H]5NC(=O)[C@H](Cc6ccc(O)cc6)NC(=O)[C@@H]6CCCN6C(=O)[C@H](CC(=O)O)NC(=O)[C@H](C)NC(=O)[C@H](Cc6ccccc6)NC(=O)[C@@H]6CSCCC(=O)N7CN(CN(C7)C(=O)CCSC[C@@H](C(=O)N[C@@H](C)C(N)=O)NC5=O)C(=O)CCSC[C@H](NC(=O)[C@H](C)NC(C)=O)C(=O)N[C@@H]([C@@H](C)CC)C(=O)N[C@@H](CCC(=O)O)C(=O)N[C@@H](CCC(=O)O)C(=O)NCC(=O)N[C@@H](CCC(N)=O)C(=O)N[C@@H](Cc5ccc(O)cc5)C(=O)N6)CCOCCC(=O)NCCOCCOCCOCCOCCOCCOCCOCCOCCOCCOCCn5nnc6c5CCC5C(CC6)C5COC(=O)NCCCC[C@@H]5NC(=O)[C@H](Cc6ccc(O)cc6)NC(=O)[C@@H]6CCCN6C(=O)[C@H](CC(=O)O)NC(=O)[C@H](C)NC(=O)[C@H](Cc6ccccc6)NC(=O)[C@@H]6CSCCC(=O)N7CN(CN(C7)C(=O)CCSC[C@@H](C(=O)N[C@@H](C)C(N)=O)NC5=O)C(=O)CCSC[C@H](NC(=O)[C@H](C)NC(C)=O)C(=O)N[C@@H]([C@@H](C)CC)C(=O)N[C@@H](CCC(=O)O)C(=O)N[C@@H](CCC(=O)O)C(=O)NCC(=O)N[C@@H](CCC(N)=O)C(=O)N[C@@H](Cc5ccc(O)cc5)C(=O)N6)c4CCC21)C(=O)N[C@H](C(=O)N[C@@H](C)C(N)=O)CSCCC3=O (some centres unmarked) [BCY8106] | 1.26 | 0.94
